Data published in patent publication US20250059188A1, “ARYLSULPHONAMIDE COMPOUNDS” (Anaxis Pharma Pty Ltd, priority 2021, published 2025).

Tests used:
human RIPK1 = human RIPK1 (Homo sapiens (Human), UniProt Q13546); test: KINOMEscan binding assay, human RIPK1; details: equilibrium dissociation constant
In short: (§1)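 In this assay, compounds displace DNA- or phage-tagged kinase from an immobilized ligand, and eluted kinase is quantified by qPCR.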

human MLKL (full length) = human MLKL (full length) (Homo sapiens (Human), UniProt Q8NB16); test: KINOMEscan binding assay, human MLKL (full length); details: equilibrium dissociation constant
human MLKL (full length), sequence (Q8NB16 whole entry): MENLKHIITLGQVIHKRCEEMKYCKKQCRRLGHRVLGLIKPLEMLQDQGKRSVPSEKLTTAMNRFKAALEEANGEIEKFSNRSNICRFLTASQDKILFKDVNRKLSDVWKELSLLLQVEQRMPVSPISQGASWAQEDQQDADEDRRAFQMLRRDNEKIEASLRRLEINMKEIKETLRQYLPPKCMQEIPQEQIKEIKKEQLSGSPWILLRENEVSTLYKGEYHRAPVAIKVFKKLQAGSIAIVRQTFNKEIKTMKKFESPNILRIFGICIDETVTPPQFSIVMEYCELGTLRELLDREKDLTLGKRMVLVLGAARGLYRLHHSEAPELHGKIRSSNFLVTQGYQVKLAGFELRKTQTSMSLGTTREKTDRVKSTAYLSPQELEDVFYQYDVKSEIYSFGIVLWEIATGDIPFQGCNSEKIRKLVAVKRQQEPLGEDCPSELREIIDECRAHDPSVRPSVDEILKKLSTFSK
In short: as §1

[1] = test system: Immortalised Mouse Dermal Fibroblasts (MDFs); test: Inhibition of TSI induced necroptosis in mouse dermal fibroblasts (CellTitre-Glo); details: Mus musculus, Fibroblast, 3 h, MDF cells, TSI cocktail (TNF, Smac mimetic, IDN-6556), read-out: Inhibition of TSI-induced necroptosis (IC50 cell-based assay) in MDF
In short: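 Immortalised MDFs (2200 cells/well, DMEM + 7.4% FBS) pretreated 30 min with compound (36 μM top, 1:3, 10 points, 0.3% DMSO), then 3 h with TNF 100 ng/ml, Smac mimetic 500 nM and IDN-6556 10 μM at 37 °C. Viability by CellTiter-Glo luminescence; IC50 from 4-parameter logistic fit.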

human RIPK1, sequence (Q13546 whole entry): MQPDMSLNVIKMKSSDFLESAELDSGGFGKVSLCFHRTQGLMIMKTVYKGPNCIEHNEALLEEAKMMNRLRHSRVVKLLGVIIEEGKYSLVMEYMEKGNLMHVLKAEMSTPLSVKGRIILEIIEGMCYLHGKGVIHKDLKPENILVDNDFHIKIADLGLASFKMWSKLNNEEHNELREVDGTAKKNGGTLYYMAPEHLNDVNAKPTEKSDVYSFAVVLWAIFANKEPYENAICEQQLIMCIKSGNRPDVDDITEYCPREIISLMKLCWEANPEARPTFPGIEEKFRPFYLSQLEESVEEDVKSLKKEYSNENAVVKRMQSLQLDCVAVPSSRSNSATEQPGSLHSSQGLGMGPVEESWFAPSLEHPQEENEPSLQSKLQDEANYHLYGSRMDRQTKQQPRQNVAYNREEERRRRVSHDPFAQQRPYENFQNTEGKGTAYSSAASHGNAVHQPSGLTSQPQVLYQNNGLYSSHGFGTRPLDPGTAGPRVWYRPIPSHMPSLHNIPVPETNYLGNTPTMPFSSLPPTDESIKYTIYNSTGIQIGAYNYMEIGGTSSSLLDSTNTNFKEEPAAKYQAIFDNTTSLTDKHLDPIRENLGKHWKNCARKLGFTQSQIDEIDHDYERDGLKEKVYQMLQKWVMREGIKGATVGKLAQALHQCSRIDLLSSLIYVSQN

Row | SMILES | Kd (human RIPK1) [µM] | Kd (human MLKL (full length)) [µM] | IC50 [1] [µM]
1 | C[C@H](Oc1cc(-c2nn(C)c3c(-c4cnn(C5CC6CCC(C5)N6CC(F)(F)F)c4)cnc(N)c23)ccc1NS(=O)(=O)C(F)F)c1ccc(F)cc1 (stereo partly drawn) [Compound 153, N-(4-(4-amino-1-methyl-7-(1-(8-(2,2,2-trifluoroethyl)-8-azabicyclo[3.2.1]octan-3-yl)-1H-pyrazol-4-yl)-1H-pyrazolo[4,3-c]pyridin-3-yl)-2-((S)-1-(4-fluorophenyl)ethoxy)phenyl)-1,1-difluoromethanesulfonamide] | > 10 | 0.001 to 0.1 | 0.1 to 1
2 | C[C@H](Oc1cc(-c2nn(C)c3c(C#CC4CCN(C)CC4)cnc(N)c23)ccc1NS(=O)(=O)C(F)F)c1ccc(F)cc1 [Compound 80, (S)—N-(4-(4-amino-1-methyl-7-((1-methylpiperidin-4-yl)ethynyl)-1H-pyrazolo[4,3-c]pyridin-3-yl)-2-(1-(4-fluorophenyl)ethoxy)phenyl)-1,1-difluoromethanesulfonamide] | > 10 | < 0.001 | 0.1 to 1
3 | COCC(Oc1cc(-c2nn(C)c3c(-c4cnn(C5CCN(C)CC5)c4)cnc(N)c23)ccc1NS(=O)(=O)C(F)F)c1ccc(F)cc1 (stereo not drawn) [Compound 139, N-(4-(4-amino-1-methyl-7-(1-(1-methylpiperidin-4-yl)-1H-pyrazol-4-yl)-1H-pyrazolo[4,3-c]pyridin-3-yl)-2-(1-(4-fluorophenyl)-2-methoxyethoxy)phenyl)-1,1-difluoromethanesulfonamide] | > 10 | 0.001 to 0.1 | 1 to 10
4 | C[C@H](Oc1cc(-c2nn(C)c3c(-c4ccc5c(cnn5C)c4)cnc(N)c23)ccc1NS(=O)(=O)C(F)F)c1ccc(F)cc1 [Compound 166, (S)-N-(4-(4-amino-1-methyl-7-(1-methyl-1H-indazol-5-yl)-1H-pyrazolo[4,3-c]pyridin-3-yl)-2-(1-(4-fluorophenyl)ethoxy)phenyl)-1,1-difluoromethanesulfonamide] | > 10 | 0.001 to 0.1 | 1 to 10
5 | C[C@H](Oc1cc(-c2nn(C)c3c(C#CC4CCNCC4)cnc(N)c23)ccc1NS(=O)(=O)C(F)F)c1ccc(F)cc1 [Compound 79, (S)—N-(4-(4-amino-1-methyl-7-(piperidin-4-ylethynyl)-1H-pyrazolo[4,3-c]pyridin-3-yl)-2-(1-(4-fluorophenyl)ethoxy)phenyl)-1,1-difluoromethanesulfonamide] | > 10 | < 0.001 | 1 to 10
6 | C[C@H](Oc1cc(-c2nn(C)c3c(-c4cnn(C5(CC#N)COC5)c4)cnc(N)c23)ccc1NS(=O)(=O)C(F)F)c1ccc(F)cc1 [Compound 98, (S)-N-(4-(4-amino-7-(1-(3-(cyanomethyl)oxetan-3-yl)-1H-pyrazol-4-yl)-1-methyl-1H-pyrazolo[4,3-c]pyridin-3-yl)-2-(1-(4-fluorophenyl)ethoxy)phenyl)-1,1-difluoromethanesulfonamide] | > 10 | < 0.001 | 1 to 10
7 | C[C@H](Oc1cc(-c2nn(C)c3c(-c4cnn(C5CCN(C)C(C(F)(F)F)C5)c4)cnc(N)c23)ccc1NS(=O)(=O)C(F)F)c1ccc(F)cc1 (stereo partly drawn) [Compound 148, N-(4-(4-amino-1-methyl-7-(1-(1-methyl-2-(trifluoromethyl)piperidin-4-yl)-1H-pyrazol-4-yl)-1H-pyrazolo[4,3-c]pyridin-3-yl)-2-((S)-1-(4-fluorophenyl)ethoxy)phenyl)-1,1-difluoromethanesulfonamide] | > 10 | 0.001 to 0.1 | 0.1 to 1
8 | Cn1nc(-c2ccc(NS(=O)(=O)C(F)F)c(OCc3ccc(F)cc3)c2)c2c(N)ncc(-c3cnn(C4CCOCC4)c3)c21 [Compound 13, N-(4-(4-amino-1-methyl-7-(1-(tetrahydro-2H-pyran-4-yl)-1H-pyrazol-4-yl)-1H-pyrazolo[4,3-c]pyridin-3-yl)-2-((4-fluorobenzyl)oxy)phenyl)-1,1-difluoromethanesulfonamide] | > 10 | < 0.001 | 1 to 10

More lines, main results first:

Row | Kd (human RIPK1) [µM] | Kd (human MLKL (full length)) [µM] | SMILES | IC50 [1] [µM]
9 | > 10 | < 0.001 | C[C@H](Oc1cc(-c2nn(C)c3c(-c4cnn(C5C[C@H]6CNC[C@H]6C5)c4)cnc(N)c23)ccc1NS(=O)(=O)C(F)F)c1ccc(F)cc1 (stereo partly drawn) [Compound 163, N-(4-(4-amino-1-methyl-7-(1-((3aR,6aS)-octahydrocyclopenta[c]pyrrol-5-yl)-1H-pyrazol-4-yl)-1H-pyrazolo[4,3-c]pyridin-3-yl)-2-((S)-1-(4-fluorophenyl)ethoxy)phenyl)-1,1-difluoromethanesulfonamide] | 1 to 10
10 | > 10 | < 0.001 | Cn1nc(-c2ccc(NS(=O)(=O)C(F)F)c(OCc3ccc(Cl)c(F)c3)c2)c2c(N)ncc(-c3cnn(C4CCOCC4)c3)c21 [Compound 132, N-(4-(4-amino-1-methyl-7-(1-(tetrahydro-2H-pyran-4-yl)-1H-pyrazol-4-yl)-1H-pyrazolo[4,3-c]pyridin-3-yl)-2-((4-chloro-3-fluorobenzyl)oxy)phenyl)-1,1-difluoromethanesulfonamide] | 1 to 10
11 | > 10 | < 0.001 | C[C@H](Oc1cc(-c2nn(C)c3c(-c4cnn(C5C[C@@H]6CN(C)C[C@@H]6C5)c4)cnc(N)c23)ccc1NS(=O)(=O)C(F)F)c1ccc(F)cc1 (stereo partly drawn) [Compound 164, N-(4-(4-amino-1-methyl-7-(1-((3aR,6aS)-2-methyloctahydrocyclopenta[c]pyrrol-5-yl)-1H-pyrazol-4-yl)-1H-pyrazolo[4,3-c]pyridin-3-yl)-2-((S)-1-(4-fluorophenyl)ethoxy)phenyl)-1,1-difluoromethanesulfonamide] | < 0.1
12 | > 10 | 0.001 to 0.1 | C[C@H](Oc1cc(-c2nn(C)c3c(-c4cnn(CC(F)(F)F)c4)cnc(N)c23)ccc1NS(=O)(=O)C(F)F)c1ccc(F)cc1 [Compound 116, (S)-N-(4-(4-amino-1-methyl-7-(1-(2,2,2-trifluoroethyl)-1H-pyrazol-4-yl)-1H-pyrazolo[4,3-c]pyridin-3-yl)-2-(1-(4-fluorophenyl)ethoxy)phenyl)-1,1-difluoromethanesulfonamide] | 1 to 10
13 | > 10 | 0.001 to 0.1 | CC1C(n2cc(-c3cnc(N)c4c(-c5ccc(NS(=O)(=O)C(F)F)c(O[C@@H](C)c6ccc(F)cc6)c5)nn(C)c34)cn2)CN1C (stereo partly drawn) [Compound 147, N-(4-(4-amino-7-(1-(1,2-dimethylazetidin-3-yl)-1H-pyrazol-4-yl)-1-methyl-1H-pyrazolo[4,3-c]pyridin-3-yl)-2-((S)-1-(4-fluorophenyl)ethoxy)phenyl)-1,1-difluoromethanesulfonamide] | 0.1 to 1
14 | > 10 | 0.001 to 0.1 | C[C@H](Oc1cc(-c2nn(C)c3c(-c4cnn(C5CCN(CC(F)(F)F)C(C)(C)C5)c4)cnc(N)c23)ccc1NS(=O)(=O)C(F)F)c1ccc(F)cc1 (stereo partly drawn) [Compound 167, N-(4-(4-amino-7-(1-(2,2-dimethyl-1-(2,2,2-trifluoroethyl)piperidin-4-yl)-1H-pyrazol-4-yl)-1-methyl-1H-pyrazolo[4,3-c]pyridin-3-yl)-2-((S)-1-(4-fluorophenyl)ethoxy)phenyl)-1,1-difluoromethanesulfonamide] | < 0.1
15 | > 10 | < 0.001 | CC(C)N(C)C(=O)C(C)n1cc(-c2cnc(N)c3c(-c4ccc(NS(=O)(=O)C(F)F)c(O[C@@H](C)c5ccc(F)cc5)c4)nn(C)c23)cn1 (stereo partly drawn) [Compound 81, 2-(4-(4-amino-3-(4-((difluoromethyl)sulfonamido)-3-((S)-1-(4-fluorophenyl)ethoxy)phenyl)-1-methyl-1H-pyrazolo[4,3-c]pyridin-7-yl)-1H-pyrazol-1-yl)-N-isopropyl-N-methylpropanamide] | 1 to 10
16 | > 10 | < 0.001 | C[C@H](Oc1cc(-c2nn(C)c3c(-c4cnn(C5CCN(C)C(C)(C)C5)c4)cnc(N)c23)ccc1NS(=O)(=O)C(F)F)c1ccc(Cl)cc1 (stereo partly drawn) [Compound 159, N-(4-(4-amino-1-methyl-7-(1-(1,2,2-trimethylpiperidin-4-yl)-1H-pyrazol-4-yl)-1H-pyrazolo[4,3-c]pyridin-3-yl)-2-((S)-1-(4-chlorophenyl)ethoxy)phenyl)-1,1-difluoromethanesulfonamide] | < 0.1
17 | > 10 | 0.001 to 0.1 | C[C@H](Oc1cc(-c2nn(C)c3c(-c4cnn(C5CCN(C)C6(CC6)C5)c4)cnc(N)c23)ccc1NS(=O)(=O)C(F)F)c1ccc(F)cc1 (single isomer, unassigned) [Compound 170, N-(4-(4-amino-1-methyl-7-(1-((S*)-4-methyl-4-azaspiro[2.5]octan-7-yl)-1H-pyrazol-4-yl)-1H-pyrazolo[4,3-c]pyridin-3-yl)-2-((S)-1-(4-fluorophenyl)ethoxy)phenyl)-1,1-difluoromethanesulfonamide] | < 0.1
18 | > 10 | < 0.001 | C[C@H](Oc1cc(-c2nn(C)c3c(-c4cnn(C5CCOCC5)c4)cnc(N)c23)ccc1NS(=O)(=O)C(F)F)c1ccc(F)cc1 [Compound 19, (S)-N-(4-(4-amino-1-methyl-7-(1-(tetrahydro-2H-pyran-4-yl)-1H-pyrazol-4-yl)-1H-pyrazolo[4,3-c]pyridin-3-yl)-2-(1-(4-fluorophenyl)ethoxy)phenyl)-1,1-difluoromethanesulfonamide] | 0.1 to 1
